# Measured values: patent US20240115654A1, “INTRAVENOUS ADMINISTRATION OF ENGINEERED ANTIMICROBIAL AMPHIPHILIC PEPTIDES” (priority 2021, published 2024)
# Peptide text beside a SMILES is read from it.
# Conditions: Cohort 4: 0.5 mg/kg IV 2-hr infusion (N = 6)
# Source text: All subjects who met eligibility criteria were confined to the clinical research unit from […] through Day 3. At admission, physical examination, vital signs, 12 lead ECG and weight were obtained, medical and medication history were updated if necessary, safety blood tests (hematology and chemistry), urinalysis, urine drug screen and an alcohol breath test were repeated and a urine pregnancy test was done for women of childbearing potential.
# At each dose level, there were 2 sentinel subjects, (1 active, 1 placebo), who were dosed at least 48 hours in advance of the other subjects in their respective group. Following review of safety data, including physical examination, vital signs, and review of adverse events from the first 2 subjects, enrolment in the cohort continued.
# A 12-lead ECG was performed on Day 1, within 60 minutes of infusion start (in triplicate), mid-way through the infusion, at the completion of the infusion, 30 minutes after completion of the infusion and at various timepoints following the end of the infusion.
# Vital signs were recorded within 60 minutes pre-dose, at the mid-point of the infusion and post dose vitals were assessed at completion of the infusion, 0.5, 1, 2, 3, 4, 6, 9, 12, 24 and 48 hours post dose, after at least 3 minutes of rest in supine position.
# Subjects returned to the study center 7 days after dosing, for the termination visit. A full physical examination, vital signs and weight were obtained, concomitant medications were updated if necessary, safety blood specimens (haematology and chemistry, PT and aPTT) and urine were collected for urinalysis and urine drug screening. A serum pregnancy test was done for women of childbearing potential and a 12-lead ECG was performed.
# In this study dose limiting toxicity (DLT) was defined as any drug related ≥Grade 3 AEs occurring despite optimal therapeutic interventions (which included but were not limited to allergic/hypersensitivity reactions, dermatological reactions/infusion site reactions, haematological toxicities such as neutropenia, thrombocytopenia and anaemia and clinical chemistry abnormalities) experienced up to Day 7 (Termination Visit).
# (§1) All subjects who received any amount of study drug were included in the safety analysis (Safety population).
# The study was a double blinded, randomized, placebo-controlled study. The placebo administered was 0.9% sodium chloride.
# On Day 1 (day of dosing), subjects were randomly assigned either peptide IV or Placebo IV. At each dose level, there were 2 sentinel subjects, (1 active, 1 placebo), who were dosed at least 48 hours in advance of the other subjects in their respective group. Following review of safety data, including physical examination, vital signs, and review of adverse events from the first 2 subjects, enrolment in the cohort continued. All subjects who met eligibility criteria were confined to the clinical research unit from Day −2 through Day 3. At admission, physical examination, vital signs, 12 lead ECG and weight were obtained, medical and medication history were updated if necessary, safety blood tests (hematology and chemistry), urinalysis, urine drug screen and an alcohol breath test were repeated and a urine pregnancy test was done for women of childbearing potential.
# as §1
compound,measurement,value
CC(C)[C@H](NC(=O)[C@H](Cc1c[nH]c2ccccc12)NC(=O)[C@H](CCCNC(=N)N)NC(=O)[C@H](CCCNC(=N)N)NC(=O)[C@@H](NC(=O)[C@@H](NC(=O)[C@H](CCCNC(=N)N)NC(=O)[C@@H](NC(=O)[C@@H](NC(=O)[C@H](CCCNC(=N)N)NC(=O)[C@H](CCCNC(=N)N)NC(=O)[C@H](Cc1c[nH]c2ccccc12)NC(=O)[C@@H](NC(=O)[C@H](CCCNC(=N)N)NC(=O)[C@H](CCCNC(=N)N)NC(=O)[C@@H](NC(=O)[C@H](CCCNC(=N)N)NC(=O)[C@H](CCCNC(=N)N)NC(=O)[C@@H](NC(=O)[C@H](Cc1c[nH]c2ccccc12)NC(=O)[C@H](CCCNC(=N)N)NC(=O)[C@@H](N)CCCNC(=N)N)C(C)C)C(C)C)C(C)C)C(C)C)C(C)C)C(C)C)C(C)C)C(=O)N[C@@H](CCCNC(=N)N)C(=O)N[C@@H](CCCNC(=N)N)C(N)=O [SEQ ID NO: 1] (H-RRWVRRVRRVWRRVVRVVRRWVRR-NH2),"Number of Participants Reporting at least: One Dose-Limiting Toxicity, n (%)",0
same,"Number of Participants Reporting at least: One Related TEAE, n (%)",3 (50.0%)
same,"Number of Participants Reporting at least: One Serious TEAE, n (%)",0
same,"Number of Participants Reporting at least: One TEAE Leading to Study Drug Discontinuation, n (%)",0
same,"Number of Participants Reporting at least: One TEAE with Common Terminology Criteria for Adverse Events (CTCAE) Toxicity ≥ Grade 3, n (%)",0
same,"Number of Participants Reporting at least: One TEAE, n (%)",6 (100%)
same,"One Related TEAE, m",4
same,"One TEAE, m",15
same,"Participants With At Least 1 TEAE, n (%)",6 (100%)
same,"Participants With At Least 1 TEAE, occurrences m",15
same,"Participants With At Least 1 Treatment-Related TEAE, n (%)",3 (50.0%)
same,"Participants With At Least 1 Treatment-Related TEAE, occurrences m",4
same,"TEAE Severity Grade 1, m",12
same,"TEAE Severity Grade 1, n (%)",6 (100%)
same,"TEAE Severity Grade 2, m",3
same,"TEAE Severity Grade 2, n (%)",2 (33.3%)
same,"TEAE by system organ class: Blood and Lymphatic System Disorders, participants n (%)",0
same,"TEAE by system organ class: Gastrointestinal Disorders, occurrences m",2
same,"TEAE by system organ class: Gastrointestinal Disorders, participants n (%)",1 (16.7%)
same,"TEAE by system organ class: General Disorders and Administration Site Conditions, occurrences m",2
same,"TEAE by system organ class: General Disorders and Administration Site Conditions, participants n (%)",2 (33.3%)
same,"TEAE by system organ class: Infections and Infestations, occurrences m",1
same,"TEAE by system organ class: Infections and Infestations, participants n (%)",1 (16.7%)
same,"TEAE by system organ class: Injury, Poisoning, and Procedural Complications, occurrences m",4
same,"TEAE by system organ class: Injury, Poisoning, and Procedural Complications, participants n (%)",3 (50.0%)
same,"TEAE by system organ class: Musculoskeletal and Connective Tissue Disorders, occurrences m",2
same,"TEAE by system organ class: Musculoskeletal and Connective Tissue Disorders, participants n (%)",2 (33.3%)
same,"TEAE by system organ class: Nervous System Disorders, occurrences m",1
same,"TEAE by system organ class: Nervous System Disorders, participants n (%)",1 (16.7%)
same,"TEAE by system organ class: Respiratory, Thoracic, and Mediastinal disorders, participants n (%)",0
same,"TEAE by system organ class: Skin and Subcutaneous Tissue Disorders, occurrences m",3
same,"TEAE by system organ class: Skin and Subcutaneous Tissue Disorders, participants n (%)",2 (33.3%)
same,"TEAE by system organ class: Vascular Disorders, participants n (%)",0
same,"TEAE severity Grade 1, occurrences m",12
same,"TEAE severity Grade 1, participants n (%)",6 (100%)
same,"TEAE severity Grade 2, occurrences m",3
same,"TEAE severity Grade 2, participants n (%)",2 (33.3%)
same,"TEAE severity Grade 3, participants n (%)",0
same,"TEAE severity Grade 4, participants n (%)",0
same,"TEAE severity Grade 5, participants n (%)",0
same,"Treatment-related TEAE: Abdominal distension, occurrences m",1
same,"Treatment-related TEAE: Abdominal distension, participants n (%)",1 (16.7%)
same,"Treatment-related TEAE: Blood and Lymphatic System Disorders, participants n (%)",0
same,"Treatment-related TEAE: Constipation, participants n (%)",0
same,"Treatment-related TEAE: Diarrhea, occurrences m",1
same,"Treatment-related TEAE: Diarrhea, participants n (%)",1 (16.7%)
same,"Treatment-related TEAE: Dizziness, participants n (%)",0
same,"Treatment-related TEAE: Feeling hot, participants n (%)",0
same,"Treatment-related TEAE: Gastrointestinal Disorders, occurrences m",2
same,"Treatment-related TEAE: Gastrointestinal Disorders, participants n (%)",1 (16.7%)
same,"Treatment-related TEAE: General Disorders and Administration Site Conditions, occurrences m",2
same,"Treatment-related TEAE: General Disorders and Administration Site Conditions, participants n (%)",2 (33.3%)
same,"Treatment-related TEAE: Headache, participants n (%)",0
same,"Treatment-related TEAE: Infusion related reaction, participants n (%)",0
same,"Treatment-related TEAE: Infusion site discomfort, participants n (%)",0
same,"Treatment-related TEAE: Infusion site pain, participants n (%)",0
same,"Treatment-related TEAE: Infusion site reaction, occurrences m",1
same,"Treatment-related TEAE: Infusion site reaction, participants n (%)",1 (16.7%)
same,"Treatment-related TEAE: Infusion site swelling, participants n (%)",0
same,"Treatment-related TEAE: Injury, Poisoning, and Procedural Complications, participants n (%)",0
same,"Treatment-related TEAE: Macule, participants n (%)",0
same,"Treatment-related TEAE: Musculoskeletal and Connective Tissue Disorders, participants n (%)",0
same,"Treatment-related TEAE: Myalgia, participants n (%)",0
same,"Treatment-related TEAE: Nervous system disorders, participants n (%)",0
same,"Treatment-related TEAE: Oropharyngeal pain, participants n (%)",0
same,"Treatment-related TEAE: Orthostatic hypotension, participants n (%)",0
same,"Treatment-related TEAE: Phlebitis, participants n (%)",0
same,"Treatment-related TEAE: Respiratory, Thoracic, and Mediastinal disorders, participants n (%)",0
